Source: PMC7901650, “Garcinoic Acid Is a Natural and Selective Agonist of Pregnane X Receptor” (Journal of Medicinal Chemistry, 2020)

Assays:
PXR = assay: PXR, CYP3A4 (CYP3A11) expression in mouse liver and intestine after single bolus; format: in vivo; conditions: 24 h post-treatment
HepG2 cells = assay: PXR, CYP3A4 and MDR1 expression in HepG2 cells; format: cell-based
Description: (§1) HepG2 (human hepatoma cell line; ATCC HB-8065, Manassas, VA) and HepaRG (HPRGC10, Thermo Fisher Scientific) cells were maintained in culture as previously described.[47] Experiments were performed between passages 2 and 10. Cell viability, clonogenic activity, and apoptotic cell death were assessed as previously described (see Figure S2).[58],[59] HT29 human colorectal adenocarcinoma cells (ATCC HTB-38) and its mucous-secreting HT29-MTX subclone (Sigma-Aldrich) were used as intestinal cell models. HT29 cells were cultured in RPMI (Invitrogen; Life Technologies) containing 10% FBS (v/v) and 1% (v/v) L-glutamine. HT29-MTX cells (from Sigma-Aldrich) were cultured in DMEM supplemented with 2 mM glutamine, 1% nonessential amino acids, and 10% FBS. Cells were maintained at 37 C in a humidified 5% (v/v) CO2 atmosphere chamber and were used between passages 10 and 20.
Cells were harvested and lysed in ice-cold cell lysis buffer (Cell Signaling Technology) and 20 μL/mL protease inhibitor cocktail (Roche). Murine tissues (10 mg each) were weighed and resuspended in 300 μL of PBS supplemented with NP40 (1:50) and a cocktail of protease inhibitors (Pierce, Thermo Fisher Scientific). After preliminary homogenation in a 1-mL potter, sonication was performed in ice (3 cycles of 15 s each with 1 min intervals). After incubation in ice for 1 h and centrifugation (12 000 rpm for 20 min at 4 °C), the supernatant was recovered, and total proteins were quantified by the BCA assay kit (Pierce, Thermo Fisher Scientific). […] The band intensity was analyzed using Gel Pro analyzer Software. […]
RNA was extracted using the RNeasy Plus Kit (QIAGEN, Valencia, CA) and quantified with Implen NanoPhotometer (GmbH Germany), and cDNA synthesis was carried out using SuperScript IV (Thermo Fisher Scientific, MA). […]

HepaRG cells = assay: PXR protein expression in HepaRG cells; format: cell-based; conditions: 24 h, 1 to 25 μM, compared with HepG2
Description: as §1, with “Cells were maintained at 37 C in a humidified 5% (v/v) CO2 atmosphere chamber and were used between passages 10 and 20.” left out
Cells were harvested and lysed in ice-cold cell lysis buffer (Cell Signaling Technology) and 20 μL/mL protease inhibitor cocktail (Roche). […] After incubation in ice for 1 h and centrifugation (12 000 rpm for 20 min at 4 °C), the supernatant was recovered, and total proteins were quantified by the BCA assay kit (Pierce, Thermo Fisher Scientific). […] The band intensity was analyzed using Gel Pro analyzer Software. […]
PXR protein was assessed by immunoblot (10 µg total protein loading) in HepaRG cells treated for 24 hrs with GA at concentrations between 1 and 25 μM (A). […]

**Q.** With `C/C(=C\CC/C(C)=C/CC[C@]1(C)CCc2cc(O)cc(C)c2O1)CC/C=C(\C)C(=O)O` [GA (1), (2E,6E,10E)-13-[(2R)-6-hydroxy-2,8-dimethyl-chroman-2-yl]-2,6,10-trimethyltrideca-2,6,10-trienoic acid] as the molecule, how does the “CYP3A4 (CYP3A11 in mice) protein expression in liver and intestine” value (PXR; 5 to 25 mg single bolus) read?
**A.** increased

**Q.** What about the “PXR mRNA in intestine” value (PXR; mice, 5 to 25 mg single bolus) of the same molecule?
**A.** increased

**Q.** And the “PXR protein and mRNA in liver tissue” value (PXR; mice, 5 to 25 mg single bolus)?
**A.** dose-dependent stimulation effect

**Q.** And the “PXR protein expression in intestine” value (PXR; mice, single bolus)?
**A.** not sufficient to significantly increase PXR protein expression

**Q.** What about the MDR1 gene expression (HepG2 cells; HepG2, 1 to 50 μM) of the same molecule?
**A.** increased in a dose–dose-dependent manner

**Q.** And the “CYP3A4 protein and mRNA expression” value (HepG2 cells; HepG2, 24 h, 1 and 25 μM)?
**A.** increased in a dose–dose-dependent manner

**Q.** And the PXR protein expression (HepG2 cells; HepG2, 24 h, 1 and 25 μM)?
**A.** increased in a dose–dose-dependent manner

**Q.** What about the PXR protein response (HepaRG cells) of the same molecule?
**A.** Even higher
